Key:
[1] = biological target: T1, Stimulator of interferon genes protein (Homo sapiens, UniProt Q86WV6); test: Inhibition of STING in human THP1 cells by IFN reporter gene assay; assay type: cell-based
[2] = biological target: T1, Stimulator of interferon genes protein; test: Inhibition of STING in human THP1 cells in presence of PFO by IFN reporter gene assay; assay type: cell-based
[3] = biological target: Stimulator of interferon genes protein (Homo sapiens, UniProt Q86WV6, G230A/R293Q/R71H); test: Displacement of [3H]-cGAMP from full length STING HAQ mutant in human THP1 cells by filtration binding assay; assay type: cell-based
Stimulator of interferon genes protein (Homo sapiens, UniProt Q86WV6, G230A/R293Q/R71H), sequence (Q86WV6 whole entry R71H/G230A/R293Q): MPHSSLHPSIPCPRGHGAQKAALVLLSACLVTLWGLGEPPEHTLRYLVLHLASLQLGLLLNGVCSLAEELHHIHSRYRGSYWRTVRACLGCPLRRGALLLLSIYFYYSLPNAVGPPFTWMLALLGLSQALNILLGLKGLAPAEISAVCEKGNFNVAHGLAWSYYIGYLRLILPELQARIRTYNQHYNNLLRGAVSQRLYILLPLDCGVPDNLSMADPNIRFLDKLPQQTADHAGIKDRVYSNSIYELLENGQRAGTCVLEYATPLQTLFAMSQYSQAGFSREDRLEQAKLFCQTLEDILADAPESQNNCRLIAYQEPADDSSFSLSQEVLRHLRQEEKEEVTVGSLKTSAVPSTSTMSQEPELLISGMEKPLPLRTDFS

[4] = biological target: T1, Stimulator of interferon genes protein; test: Inhibition of wild type human STING by SPA assay
[5] = biological target: T1, Stimulator of interferon genes protein; test: Inhibition of STING in human THP1 cells; assay type: cell-based
[6] = biological target: T1, Stimulator of interferon genes protein; test: Inhibition of STING in human THP1 cells in presence of digitonin by IFN reporter gene assay; assay type: cell-based
[7] = tested on: Stimulator of interferon genes protein (Homo sapiens), Q86WV6 [R71H,G230A,R293Q]; test: Effect on full length STING HAQ mutant in human THP1 cells at 10 uM relative to 2',3- cGAMP; assay type: cell-based
Stimulator of interferon genes protein (Homo sapiens), Q86WV6 [R71H,G230A,R293Q], sequence (Q86WV6 whole entry R71H/G230A/R293Q): as above

[8] = Inhibition of human STING H232 mutant by SPA assay
[9] = Binding affinity to human STING H232 mutant by ITC assay
[10] = biological target: T2, Stimulator of interferon genes protein (Mus musculus, UniProt Q3TBT3); test: Binding affinity to mouse STING by ITC assay
T2 sequence (Q3TBT3 whole entry): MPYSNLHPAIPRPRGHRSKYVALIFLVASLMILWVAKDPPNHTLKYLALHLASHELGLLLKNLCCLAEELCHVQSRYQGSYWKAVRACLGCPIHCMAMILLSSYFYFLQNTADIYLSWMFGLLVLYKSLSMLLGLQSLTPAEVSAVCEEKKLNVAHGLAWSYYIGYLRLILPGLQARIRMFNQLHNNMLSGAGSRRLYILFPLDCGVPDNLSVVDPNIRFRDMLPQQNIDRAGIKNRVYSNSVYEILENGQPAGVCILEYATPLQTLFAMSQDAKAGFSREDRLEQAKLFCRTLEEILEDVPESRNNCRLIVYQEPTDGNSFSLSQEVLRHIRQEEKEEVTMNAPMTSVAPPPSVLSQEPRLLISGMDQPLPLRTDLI

[11] = biological target: T1, Stimulator of interferon genes protein; test: Inhibition of STING in human THP1 cells by R232 IRF-luciferase reporter gene assay; assay type: cell-based
[12] = biological target: T1, Stimulator of interferon genes protein; test: Displacement of [3H]-cGAMP from wild type human STING by filtration binding assay
[13] = biological target: T2, Stimulator of interferon genes protein; test: Displacement of [3H]-cGAMP from mouse STING by filtration binding assay

T1 sequence (Q86WV6 whole entry): as the sequence (Q86WV6 whole entry R71H/G230A/R293Q) above, with H71R, A230G, Q293R counted along it

Nc1ncnc2c1ncn2[C@@H]1O[C@@H]2CO[P@@](=O)(S)O[C@@H]3C[C@@H](CO[P@@](=O)(S)O[C@H]2[C@H]1F)O[C@H]3n1cnc2c(N)ncnc21
EC50 [1]: 10200 nM

CCC[C@H]1[C@H]2OP(=O)(O)OC[C@H]3O[C@@H](n4cnc5c(N)ncnc54)[C@H](O)[C@@H]3OP(=O)(O)OC[C@H]1O[C@H]2n1cnc2c(=O)[nH]c(N)nc21
EC50 [1]: ≤ 100 nM | EC50 [2]: ≤ 30000 nM

COc1cc2sc(C(=O)C[C@H](C)C(=O)O)cc2c(F)c1OC
EC50 [3]: 1380 nM

COc1cc2cc(C(=O)CCC(=O)OC(C)(C)C)sc2cc1OC
EC50 [3]: 5990 nM

COc1cc2cc(C(=O)C[C@H](C)C(=O)O)sc2cc1Br
EC50 [3]: 894 nM

CCn1nc(C)cc1C(=O)/N=c1\[nH]c2cc(C(N)=O)ccc2n1C[C@@H](O)c1ccccc1
IC50 [4]: 14000 nM

Nc1ncnc2c1ncn2[C@@H]1O[C@@H]2CNC(=O)N[C@H]3[C@@H](O)[C@H](n4cnc5c(N)ncnc54)O[C@@H]3CNC(=O)N[C@H]2[C@H]1O
EC50 [5]: 25400 nM

BP1(=O)OC[C@H]2O[C@@H](n3cnc4c(=O)[nH]c(N)nc43)[C@H](OP(=O)(O)OC[C@H]3O[C@@H](n4cnc5c(N)ncnc54)[C@H](O)[C@@H]3O1)[C@@H]2O (some centres not stated)
EC50 [1]: < 30000 nM | EC50 [2]: < 100 nM

Nc1nc2c(ncn2[C@@H]2O[C@@]34CO[C@@H]2[C@@H]3O[P@](=O)(S)OC[C@@]23CO[C@@H]([C@H](n5cnc6c(N)ncnc65)O2)[C@@H]3O[P@](=O)(S)OC4)c(=O)[nH]1
EC50 [6]: 19300 nM

COc1cc2cc(C(=O)C[C@H](C)C(=O)O)sc2cc1OC
EC50 [3]: 2740 nM

C=C1[C@@H](n2cnc3c(N)ncnc32)[C@H](F)[C@@H]2O[P@@](O)(=S)OC[C@H]3O[C@@H](n4cnc5c(=O)[nH]c(N)nc54)[C@H](OP(O)(=S)OC[C@@H]12)[C@@H]3F (some centres not stated)
Activity [7]: 430% | EC50 [1]: 740 nM

COc1cc2sc(C(=O)C[C@H](C)C(=O)O)cc2c2nc(C)oc12
EC50 [3]: 531 nM

Nc1ncnc2c1ncn2[C@@H]1O[C@@H]2CNC(=S)N[C@H]3[C@@H](O)[C@H](n4cnc5c(N)ncnc54)O[C@@H]3CNC(=S)N[C@H]2[C@H]1O
EC50 [5]: 22200 nM

BP1(=O)OC[C@H]2O[C@@H](n3cnc4c(N)ncnc43)[C@H](O)[C@@H]2OP(=O)(O)OC[C@H]2O[C@@H](n3cnc4c(=O)[nH]c(N)nc43)[C@H](O1)[C@@H]2O (some centres not stated)
EC50 [1]: < 30000 nM | EC50 [2]: < 100 nM

CCn1nc(C)cc1C(=O)Nc1nc2cc(C(N)=O)ccc2n1CCCCn1c(NC(=O)c2cc(C)nn2CC)nc2cc(C(N)=O)ccc21
IC50 [4]: 20 nM

COc1cc2cc(C(=O)CCC(=O)O)sc2cc1OC
EC50 [3]: 1720 nM

CCn1nc(C)cc1C(=O)/N=c1\[nH]c2cc(C(N)=O)cc(OC)c2n1C/C=C/Cn1/c(=N/C(=O)c2cc(C)nn2CC)[nH]c2cc(C(N)=O)cc(OCCCN3CCOCC3)c21
EC50 [8]: 200 nM

Nc1nc2c(ncn2[C@@H]2O[C@@H]3COP(=O)(O)O[C@H]4[C@@H](O)[C@H](n5cnc6c(N)nc(F)nc65)O[C@@H]4COP(=O)(O)O[C@@H]2[C@@H]3O)c(=S)[nH]1
EC50 [3]: 1.7 nM

Nc1ncnc2c1ncn2[C@@H]1O[C@@H]2CO[P@@](=O)(S)O[C@@H]3[C@H](F)[C@@H](CO[P@@](=O)(S)O[C@H]2[C@H]1O)O[C@H]3n1cnc2c(N)ncnc21
EC50 [1]: 11200 nM | EC50 [6]: 399 nM

C#C[C@@H]1O[C@@H]2COP(=O)(S)O[C@H]3[C@@H](F)[C@H](n4cnc5c(N)ncnc54)O[C@@H]3COP(=O)(S)O[C@@H]1[C@@H]2O (some centres not stated)
EC50 [3]: < 1 nM

Nc1nc2c(ncn2[C@@H]2O[C@@H]3COP(=O)(O)O[C@@H]4[C@H](O)[C@@H](COP(=O)(O)O[C@@H]2[C@@H]3O)O[C@H]4n2cnc3c(N)ncnc32)c(=O)[nH]1
Kd [9]: 2500 nM

COc1cc2sc(C(=O)C[C@H](C)C(=O)O)cc2cc1Br
EC50 [3]: 2640 nM

Nc1nc2c(ncn2[C@@H]2O[C@@H]3CO[P@@](=O)(S)O[C@H]4[C@H]5OC[C@]4(CO[P@@](=O)(S)O[C@H]3[C@H]2O)O[C@H]5n2cnc3c(N)ncnc32)c(=O)[nH]1
EC50 [6]: 5800 nM

Nc1nc2c(ncn2[C@@H]2O[C@@H]3COP(=O)(O)O[C@H]4[C@@H](O)[C@H](n5cnc6c(N)nc(F)nc65)O[C@@H]4COP(=O)(O)O[C@@H]2[C@@H]3O)c(=O)[nH]1
EC50 [3]: 24.6 nM

COc1cc2cc(C(=O)CC(C(=O)O)C(C)C)sc2cc1OC (configuration not stated)
EC50 [3]: 9590 nM

COc1cc2sc(C(=O)[C@H]3C[C@H]3C(=O)O)cc2c(F)c1OC
EC50 [3]: 17800 nM

COc1c(O)cc2oc3cc(O)c(CC=C(C)C)c(O)c3c(=O)c2c1CC=C(C)C [MANGOSTIN]
Kd [10]: 137000 nM

NC[C@H]1[C@H]2OP(=O)(O)OC[C@H]3O[C@@H](n4cnc5c(N)ncnc54)[C@H](O)[C@@H]3OP(=O)(O)OC[C@H]1O[C@H]2n1cnc2c(=O)[nH]c(N)nc21
EC50 [3]: 21.5 nM

Nc1nc2c(ncn2[C@@H]2S[C@@H]3COP(=O)(O)O[C@H]4[C@@H](O)[C@H](n5cnc6c(N)ncnc65)O[C@@H]4COP(=O)(O)O[C@@H]2[C@@H]3O)c(=O)[nH]1
EC50 [3]: 1.2 nM

COc1cc2sc(C(=O)[C@@H]3C[C@@H]3C(=O)O)cc2c(F)c1OC
EC50 [3]: 599 nM

COc1cc2cc(C(=O)CC(C)C(=O)O)sc2cc1OC (configuration not stated)
EC50 [3]: 5550 nM

COc1c(Cl)ccc2c(=O)c3ccc(C(C)(C)C)cc3n(CC(=O)O)c12
IC50 [11]: > 50000 nM | IC50 [12]: < 20000 nM | IC50 [13]: < 20000 nM

Nc1nc2c(nnn2[C@@H]2O[C@@H]3COP(=O)(O)O[C@H]4[C@@H](O)[C@H](n5cnc6c(N)ncnc65)O[C@@H]4COP(=O)(O)O[C@@H]2[C@@H]3O)c(=O)[nH]1
EC50 [3]: < 1 nM

Nc1ncnc2c1ncn2[C@@H]1O[C@@H]2CO[P@@](=O)(S)O[C@@H]3[C@H](F)[C@@H](CO[P@@](=O)(S)O[C@H]2[C@H]1F)O[C@H]3n1cnc2c(N)ncnc21
EC50 [1]: 4500 nM | EC50 [6]: 190 nM

Source: ChEMBL document CHEMBL4342439, “Targeting Stimulator of Interferon Genes (STING): A Medicinal Chemistry Perspective” (J Med Chem, 2020)
